{
  "source": "patent US20220047507A1",
  "about": "“MELFLUFEN DOSAGE REGIMENS FOR CANCER” (ONCOPEPTIDES AB, priority 2015, published 2022)",
  "key": {"[1]": {"system": "MM cell lines resistant to dexamethasone, bortezomib and melphalan", "details": "in vitro; cited from earlier work"}, "[2]": {"system": "relapsed-refractory multiple myeloma (RRMM) patients", "experiment": "Efficacy in patients with RRMM, Example 2b, time point (bi)", "type": "in vivo, human", "protocol": "Example 2: An open label single arm extension on the dose of 40 mg over 30 minutes of Example 1. Intravenous melflufen was administered over 30 minutes on Day 1 of a 21-day cycle or 28-day cycle (in combination with 40 mg dexamethasone (oral or intravenous) treatment on Days 1, 8 and 15) for at least 2 cycles, and up to the stated number of cycles. The cycle length was extended during the Example 2 Clinical Trial from 21 to 28 days per a protocol amendment to allow for a better recovery of neutrophils and thrombocytes before a new cycle is initiated.\nExample 2a results are from a data cut-off of time point (a). Example 2b results are from a data cut-off of time point (bi) for the efficacy data, which was approximately 12 months after time point (a); and from a data cut-off of time point (bii) for the safety data, which was approximately 10 months after time point (a).\nBy the data cut-off point (bi), […] (the 40 mg dosage excludes the mass of the salt component) administered over 30 minutes every 3 weeks (21 days) in combination with weekly dexamethasone (day 1, 8 and 15) or every 4 weeks (28 days) in combination with weekly dexamethasone (day 1, 8, 15 and 22).\n[…] 10 patients were not evaluable for efficacy evaluation due to rapid early progression (8), or early termination due to adverse events (2)."}, "[3]": {"details": "Evaluable ≥ 2 cycles, n 30, listed as Melflufen"}, "[4]": {"details": "Pomalidomide refractory, Example 2b, efficacy evaluable N = 29"}, "[5]": {"details": "Pomalidomide refractory, Example 2b, treated patients N = 39"}, "[6]": {"details": "Triple refractory (2 PI/ImiD + 1 ImiD/PI), Example 2b, treated patients N = 39"}, "[7]": {"details": "refractory status Alkylator, Example 2b, treated patients N = 39"}, "[8]": {"details": "refractory status Cyclophosphamide, Example 2b, efficacy evaluable N = 29"}, "[9]": {"details": "refractory status Cyclophosphamide, Example 2b, treated patients N = 39"}, "[10]": {"details": "refractory status High dose melphalan, Example 2b, efficacy evaluable N = 29"}, "[11]": {"details": "refractory status High dose melphalan, Example 2b, treated patients N = 39"}, "[12]": {"details": "refractory status IMiD, Example 2b, treated patients N = 39"}, "[13]": {"details": "refractory status Low dose melphalan, Example 2b, efficacy evaluable N = 29"}, "[14]": {"details": "refractory status Low dose melphalan, Example 2b, treated patients N = 39"}, "[15]": {"details": "refractory status None, Example 2b, efficacy evaluable N = 29"}, "[16]": {"details": "refractory status None, Example 2b, treated patients N = 39"}, "[17]": {"details": "refractory status PI + IMiD + Alkylator, Example 2b, efficacy evaluable N = 29"}, "[18]": {"details": "refractory status PI + IMiD + Alkylator, Example 2b, treated patients N = 39"}, "[19]": {"details": "refractory status PI + IMiD, Example 2b, treated patients N = 39"}, "[20]": {"details": "refractory status PI, Example 2b, treated patients N = 39"}},
  "note": "Where “and” joins values, the source holds several entries; their conditions need not be identical. Equal values may be shown once.",
  "data": [
    {"smiles": "CCOC(=O)[C@H](Cc1ccc(F)cc1)NC(=O)[C@@H](N)Cc1ccc(N(CCCl)CCCl)cc1.Cl", "note": "[melflufen, L-Melphalanyl-4-fluoro-L-phenylalanine ethyl ester]", "values": [
      {"measurement": "cytotoxic activities in resistant MM cell lines", "setting": "[1]", "value": "concentrations similar to those observed in the parenteral, non-resistant cell lines"},
      {"measurement": "CRR (≥MR)", "setting": "[2]; Antibody refractory, Example 2b, efficacy evaluable N = 29", "value": "(50)+ %"},
      {"measurement": "CRR (≥MR)", "setting": "[2]; Antibody refractory, Example 2b, treated patients N = 39", "value": "(33) %"},
      {"measurement": "Clinical Benefit Rate (CBR)", "setting": "[2]; Evaluable ≥ 1 cycle, n 40", "value": 50, "unit": "%"},
      {"measurement": "Minimal Response (MR), patients", "setting": "[2]; Evaluable ≥ 1 cycle, n 40", "value": 8},
      {"measurement": "Overall Response Rate (ORR)", "setting": "[2]; Evaluable ≥ 1 cycle, n 40", "value": 30, "unit": "%"},
      {"measurement": "Positive Response (PR), patients", "setting": "[2]; Evaluable ≥ 1 cycle, n 40", "value": 9},
      {"measurement": "Progressive Disease (PD), patients", "setting": "[2]; Evaluable ≥ 1 cycle, n 40", "value": 9},
      {"measurement": "Stable Disease (SD), patients", "setting": "[2]; Evaluable ≥ 1 cycle, n 40", "value": 11},
      {"measurement": "Very Good Positive Response (PR), patients", "setting": "[2]; Evaluable ≥ 1 cycle, n 40", "value": 3},
      {"measurement": "Clinical Benefit Rate (CBR)", "setting": "[2]; Evaluable ≥ 2 cycles, n 30", "value": "56% and 63%"},
      {"measurement": "Overall Response Rate (ORR)", "setting": "[2]; Evaluable ≥ 2 cycles, n 30", "value": "41% and 40%"},
      {"measurement": "Positive Response (PR), patients", "setting": "[2]; Evaluable ≥ 2 cycles, n 30", "value": 9},
      {"measurement": "Progressive Disease (PD), patients", "setting": "[2]; Evaluable ≥ 2 cycles, n 30", "value": 1},
      {"measurement": "Stable Disease (SD), patients", "setting": "[2]; Evaluable ≥ 2 cycles, n 30", "value": 10},
      {"measurement": "Very Good Positive Response (PR), patients", "setting": "[2]; Evaluable ≥ 2 cycles, n 30, 40 mg over 30 min + dexamethasone", "value": 2},
      {"measurement": "Very Good Positive Response (PR), patients", "setting": "[2]; Evaluable ≥ 2 cycles, n 30, 40 mg over 30 min + dexamethasone, listed as Melflufen", "value": 3},
      {"measurement": "Clinical Benefit Rate (CBR)", "setting": "[2]; [3]", "value": 63, "unit": "%"},
      {"measurement": "Minimal Response (MR), patients", "setting": "[2]; [3]", "value": 7},
      {"measurement": "Overall Response Rate (ORR)", "setting": "[2]; [3]", "value": 40, "unit": "%"},
      {"measurement": "median duration of response (DOR)", "setting": "[2]; Example 2b, 11 events in 12 responding patients", "value": 7.7, "unit": "months"},
      {"measurement": "median progression free survival (PFS)", "setting": "[2]; Example 2b, ITT-population (n=40)", "value": 4.3, "unit": "months"},
      {"measurement": "median progression free survival (PFS)", "setting": "[2]; Example 2b, PP-population (efficacy evaluable, n=30)", "value": 7.9, "unit": "months"},
      {"measurement": "increase in PFS compared to pomalidomide+dexamethasone and carfilzomib", "setting": "[2]; Example 2b, efficacy evaluable population", "value": "around 4 months"},
      {"measurement": "CRR (≥MR)", "setting": "[2]; [4]", "value": "(55) %"},
      {"measurement": "ORR (≥PR)", "setting": "[2]; [4]", "value": "(36) %"},
      {"measurement": "CRR (≥MR)", "setting": "[2]; [5]", "value": "(44) %"},
      {"measurement": "ORR (≥PR)", "setting": "[2]; [5]", "value": "(25) %"},
      {"measurement": "CRR (≥MR)", "setting": "[2]; Triple refractory (2 PI/ImiD + 1 ImiD/PI), Example 2b, efficacy evaluable N = 29", "value": "(70) %"},
      {"measurement": "CRR (≥MR)", "setting": "[2]; [6]", "value": "(44) %"},
      {"measurement": "ORR (≥PR)", "setting": "[2]; [6]", "value": "(25) %"},
      {"measurement": "best response of minimal response (MR) or better, n patients", "setting": "[2]; of 30 evaluable", "value": "15 and 19"},
      {"measurement": "partial response (PR) or better, n patients", "setting": "[2]; of 30 evaluable", "value": 12},
      {"measurement": "best response of PR or better, n patients", "setting": "[2]; of the 8 patients refractory to an alkylator as their last line of treatment", "value": 5},
      {"measurement": "CRR (≥MR)", "setting": "[2]; refractory status Alkylator, Example 2b, efficacy evaluable N = 29", "value": "(73) %"},
      {"measurement": "CRR (≥MR)", "setting": "[2]; [7]", "value": "(55) %"},
      {"measurement": "ORR (≥PR)", "setting": "[2]; [7]", "value": "(36) %"},
      {"measurement": "CRR (≥MR)", "setting": "[2]; [8]", "value": "(80) %"},
      {"measurement": "ORR (≥PR)", "setting": "[2]; [8]", "value": "(60) %"},
      {"measurement": "CRR (≥MR)", "setting": "[2]; [9]", "value": "(53) %"},
      {"measurement": "ORR (≥PR)", "setting": "[2]; [9]", "value": "(40) %"},
      {"measurement": "CRR (≥MR)", "setting": "[2]; [10]", "value": "(100) %"},
      {"measurement": "ORR (≥PR)", "setting": "[2]; [10]", "value": "(67) %"},
      {"measurement": "CRR (≥MR)", "setting": "[2]; [11]", "value": "(100) %"},
      {"measurement": "ORR (≥PR)", "setting": "[2]; [11]", "value": "(33) %"},
      {"measurement": "CRR (≥MR)", "setting": "[2]; refractory status IMiD, Example 2b, efficacy evaluable N = 29", "value": "(63) %"},
      {"measurement": "CRR (≥MR)", "setting": "[2]; [12]", "value": "(47) %"},
      {"measurement": "ORR (≥PR)", "setting": "[2]; [12]", "value": "(28) %"},
      {"measurement": "CRR (≥MR)", "setting": "[2]; [13]", "value": "(60) %"},
      {"measurement": "ORR (≥PR)", "setting": "[2]; [13]", "value": "(40) %"},
      {"measurement": "CRR (≥MR)", "setting": "[2]; [14]", "value": "(67) %"},
      {"measurement": "ORR (≥PR)", "setting": "[2]; [14]", "value": "(33) %"},
      {"measurement": "CRR (≥MR)", "setting": "[2]; [15]", "value": "(100) %"},
      {"measurement": "ORR (≥PR)", "setting": "[2]; [15]", "value": "(100) %"},
      {"measurement": "CRR (≥MR)", "setting": "[2]; [16]", "value": "(100) %"},
      {"measurement": "ORR (≥PR)", "setting": "[2]; [16]", "value": "(100) %"},
      {"measurement": "CRR (≥MR)", "setting": "[2]; [17]", "value": "(44) %"},
      {"measurement": "ORR (≥PR)", "setting": "[2]; [17]", "value": "(33) %"},
      {"measurement": "CRR (≥MR)", "setting": "[2]; [18]", "value": "(40) %"},
      {"measurement": "ORR (≥PR)", "setting": "[2]; [18]", "value": "(20) %"},
      {"measurement": "CRR (≥MR)", "setting": "[2]; refractory status PI + IMiD, Example 2b, efficacy evaluable N = 29", "value": "(59) %"},
      {"measurement": "CRR (≥MR)", "setting": "[2]; [19]", "value": "(46) %"},
      {"measurement": "ORR (≥PR)", "setting": "[2]; [19]", "value": "(25) %"},
      {"measurement": "CRR (≥MR)", "setting": "[2]; refractory status PI, Example 2b, efficacy evaluable N = 29", "value": "(63) %"},
      {"measurement": "CRR (≥MR)", "setting": "[2]; [20]", "value": "(50) %"},
      {"measurement": "ORR (≥PR)", "setting": "[2]; [20]", "value": "(25) %"}
    ]}
  ]
}
